pKd: −log10 of the molar value.
Tests used:
FLT3 = target: T1, FLT3 (Homo sapiens, UniProt P36888); test: Competition binding assay, FLT3 Kd; conditions: competition binding
T1 construct: made in house
T1 sequence (P36888 27-993): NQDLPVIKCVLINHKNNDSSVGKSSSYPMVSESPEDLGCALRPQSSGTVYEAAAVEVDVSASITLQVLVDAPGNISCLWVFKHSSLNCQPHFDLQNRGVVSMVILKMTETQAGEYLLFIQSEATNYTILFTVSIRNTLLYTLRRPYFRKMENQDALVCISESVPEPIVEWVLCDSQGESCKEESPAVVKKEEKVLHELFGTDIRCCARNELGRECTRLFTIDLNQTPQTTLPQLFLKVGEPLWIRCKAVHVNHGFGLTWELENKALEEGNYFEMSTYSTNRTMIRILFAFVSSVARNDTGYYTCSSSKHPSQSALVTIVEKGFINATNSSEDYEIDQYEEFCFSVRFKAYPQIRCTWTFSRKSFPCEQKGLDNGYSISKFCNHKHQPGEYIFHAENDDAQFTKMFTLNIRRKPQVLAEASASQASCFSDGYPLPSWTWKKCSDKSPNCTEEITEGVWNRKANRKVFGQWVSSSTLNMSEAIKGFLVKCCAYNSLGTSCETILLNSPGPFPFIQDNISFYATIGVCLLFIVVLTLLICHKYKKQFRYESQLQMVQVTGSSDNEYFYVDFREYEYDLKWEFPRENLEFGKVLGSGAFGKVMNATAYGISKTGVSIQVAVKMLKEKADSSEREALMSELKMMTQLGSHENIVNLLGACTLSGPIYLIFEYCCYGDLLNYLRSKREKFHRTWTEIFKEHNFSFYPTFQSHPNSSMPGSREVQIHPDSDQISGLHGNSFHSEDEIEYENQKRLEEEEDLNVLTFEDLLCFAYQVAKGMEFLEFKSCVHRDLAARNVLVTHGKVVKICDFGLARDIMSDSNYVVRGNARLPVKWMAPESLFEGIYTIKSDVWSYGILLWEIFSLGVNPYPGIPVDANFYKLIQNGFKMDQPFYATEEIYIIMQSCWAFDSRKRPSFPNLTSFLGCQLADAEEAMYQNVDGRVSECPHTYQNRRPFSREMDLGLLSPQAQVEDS
Outline: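 Kinases, either T7 phage fusions or HEK-293-expressed and DNA-tagged, competed with test compounds for immobilized biotinylated affinity ligand on streptavidin beads in binding buffer (20% SeaBlock, 0.17×PBS, 0.05% Tween 20, 6 mM DTT). After 1 hour at room temperature, bead-bound kinase was eluted and quantified by qPCR; Kd from eleven-point threefold dilutions.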

[1] = target: kinase panel containing either 386 or 392 distinct kinases; test: Kinase selectivity score S10 from competition binding panel; conditions: 10 μM, panel of 386 or 392 distinct kinases
Outline: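 S10 is the number of kinases with percent-of-control under 10, divided by all distinct wild-type kinases tested, from a single 10 μM concentration. Binding measured by qPCR of kinase recovered from ligand-coated beads after 1 h equilibrium at room temperature; kinases were phage fusions or DNA-tagged HEK-293 products.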

Row | pKd (FLT3) | Kinase specificity S(10) [1] | Compound
1 | < 5.30 | B (0.01<B≤0.02) | O[C@@H]1CCCC[C@H]1Nc1nc2ccc(Cn3cnc4cc(F)c(F)cc43)cc2s1 [Example 128, (1R,2R)-2-((6-((5,6-difluoro-1H-benzo[d]imidazol-1-yl)methyl)benzo[d]thiazol-2-yl)amino)cyclohexanol]
2 | 6.00 to 6.70 | A (A≤0.01) | O=C(O)/C=C/c1ccc2c(c1)ncn2Cc1ccc2nc(N[C@@H]3CCCC[C@H]3O)sc2c1 [Example 224, (E)-3-(1-((2-(((1R,2R)-2-hydroxycyclohexyl)amino)benzo[d]thiazol-6-yl)methyl)-1H-benzo[d]imidazol-5-yl)acrylic acid]
3 | 6.00 to 6.70 | B (0.01<B≤0.02) | OCCOc1ccc2c(c1)ncn2Cc1ccc2nc(N[C@@H]3CCCC[C@H]3O)sc2c1 [Example 172, (1R,2R)-2-((6-((5-(2-hydroxyethoxy)-1H-benzo[d]imidazol-1-yl)methyl)benzo[d]thiazol-2-yl)amino)cyclohexanol]
4 | 5.30 to 6.00 | A (A≤0.01) | Cc1ccc2c(c1)ncn2Cc1ccc2nc(N[C@@H]3CCCC[C@H]3O)sc2c1 [Example 127, (1R,2R)-2-((6-((5-methyl-1H-benzo[d]imidazol-1-yl)methyl)benzo[d]thiazol-2-yl)amino)cyclohexanol]
5 | 6.00 to 6.70 | A (A≤0.01) | O[C@@H]1[C@H](O)CCC[C@H]1Nc1nc2ccc(Cn3cnc4cc(N5CCOCC5)ccc43)cc2s1 [Example 235, (1R,2S,3R)-3-((6-((5-morpholino-1H-benzo[d]imidazol-1-yl)methyl)benzo[d]thiazol-2-yl)amino)cyclohexane-1,2-diol]
6 | ≥ 6.70 | C (C>0.02) | O[C@@H]1CCCC[C@H]1Nc1nc2ccc(Cc3cnc4cccnn34)cc2o1 [Example 142, (1R,2R)-2-((6-(imidazo[1,2-b]pyridazin-3-ylmethyl)benzo[d]oxazol-2-yl)amino)cyclohexanol]
7 | 6.00 to 6.70 | A (A≤0.01) | Oc1ccc2c(c1)ncn2Cc1ccc2nc(N[C@@H]3CCCC[C@H]3O)sc2c1 [Example 147, 1-((2-(((1R,2R)-2-hydroxycyclohexyl)amino)benzo[d]thiazol-6-yl)methyl)-1H-benzo[d]imidazol-5-ol]
8 | 6.00 to 6.70 | A (A≤0.01) | O[C@@H]1[C@H](O)CCC[C@H]1Nc1nc2ccc(Cn3cnc4cc(-n5cncn5)cnc43)cc2s1 [Example 234, (1R,2S,3R)-3-((6-((6-(1H-1,2,4-Triazol-1-yl)-3H-imidazo[4,5-b]pyridin-3-yl)methyl)benzo[d]thiazol-2-yl)amino)cyclohexane-1,2-diol]
9 | < 5.30 | A (A≤0.01) | O[C@@H]1CCCC[C@H]1Nc1nc2ccc(Cc3cnc4sccn34)cc2s1 [Example 157, (1R,2R)-2-((6-(imidazo[2,1-b]thiazol-5-ylmethyl)benzo[d]thiazol-2-yl)amino)cyclohexanol]
10 | 6.00 to 6.70 | A (A≤0.01) | O[C@@H]1CCCC[C@H]1Nc1nc2ccc(Cn3cnc4cc(-n5cccn5)ccc43)cc2s1 [Example 160, (1R,2R)-2-((6-((5-(1H-pyrazol-1-yl)-1H-benzo[d]imidazol-1-yl)methyl)benzo[d]thiazol-2-yl)amino)cyclohexanol]
11 | 5.30 to 6.00 | B (0.01<B≤0.02) | OC[C@H]1CCCC[C@H]1Nc1nc2ccc(Cn3cnc4cc(Br)cnc43)cc2s1 [Example 136, ((1S,2R)-2-((6-((6-bromo-3H-imidazo[4,5-b]pyridin-3-yl)methyl)benzo[d]thiazol-2-yl)amino)cyclohexyl)methanol]
12 | 5.30 to 6.00 | A (A≤0.01) | O[C@@H]1CCCC[C@H]1Nc1nc2ccc(Cn3cnc4cc(F)cc(F)c43)cc2s1 [Example 148, (1R,2R)-2-((6-((5,7-difluoro-1H-benzo[d]imidazol-1-yl)methyl)benzo[d]thiazol-2-yl)amino)cyclohexanol]
13 | 5.30 to 6.00 | A (A≤0.01) | O[C@@H]1[C@H](O)CCC[C@H]1Nc1nc2ccc(Cc3cnc4cc(-n5nccn5)ccn34)cc2s1 [Example 231, (1R,2S,3R)-3-((6-((7-(2H-1,2,3-triazol-2-yl)imidazo[1,2-a]pyridin-3-yl)methyl)benzo[d]thiazol-2-yl)amino)cyclohexane-1,2-diol]
14 | 6.00 to 6.70 | A (A≤0.01) | O[C@@H]1CCCC[C@H]1Nc1nc2ccc(Cn3cnc4cc(Cl)c(Cl)nc43)cc2s1 [Example 137, (1R,2R)-2-((6-((5,6-dichloro-3H-imidazo[4,5-b]pyridin-3-yl)methyl)benzo[d]thiazol-2-yl)amino)cyclohexanol]
15 | 6.00 to 6.70 | A (A≤0.01) | N#Cc1cc2ncn(Cc3ccc4nc(N[C@@H]5CCCC[C@H]5O)sc4c3)c2nc1C#N [Example 139, 3-((2-(((1R,2R)-2-hydroxycyclohexyl)amino)benzo[d]thiazol-6-yl)methyl)-3H-imidazo[4,5-b]pyridine-5,6-dicarbonitrile]
16 | 5.30 to 6.00 | A (A≤0.01) | O[C@@H]1CCCC[C@H]1Nc1nc2ccc(Cn3cnc4cc(-n5cncn5)cnc43)cc2s1 [Example 145, (1R,2R)-2-((6-((6-(1H-1,2,4-triazol-1-yl)-3H-imidazo[4,5-b]pyridin-3-yl)methyl)benzo[d]thiazol-2-yl)amino)cyclohexanol]
17 | 6.00 to 6.70 | A (A≤0.01) | O[C@@H]1[C@H](O)CCC[C@H]1Nc1nc2ccc(Cc3cnc4cc(-n5cccn5)ccn34)cc2s1 [Example 229, (1R,2S,3R)-3-((6-((7-(1H-pyrazol-1-yl)imidazo[1,2-a]pyridin-3-yl)methyl)benzo[d]thiazol-2-yl)amino)cyclohexane-1,2-diol]
18 | 5.30 to 6.00 | A (A≤0.01) | O[C@@H]1CCCC[C@H]1Nc1nc2ccc(Cc3cnc4cc(-n5cncn5)ccn34)cc2s1 [Example 169, (1R,2R)-2-((6-((7-(1H-1,2,4-triazol-1-yl)imidazo[1,2-a]pyridin-3-yl)methyl)benzo[d]thiazol-2-yl)amino)cyclohexanol]
19 | 5.30 to 6.00 | A (A≤0.01) | O[C@@H]1CCCC[C@H]1Nc1nc2ccc(Cn3cnc4cc(-n5cncn5)ccc43)cc2s1 [Example 161, (1R,2R)-2-((6-((5-(1H-1,2,4-triazol-1-yl)-1H-benzo[d]imidazol-1-yl)methyl)benzo[d]thiazol-2-yl)amino)cyclohexanol]
20 | 5.30 to 6.00 | B (0.01<B≤0.02) | Cn1nnc(-c2ccc3c(c2)ncn3Cc2ccc3nc(N[C@@H]4CCCC[C@H]4O)sc3c2)n1 [Example 227, (1R,2R)-2-((6-((5-(2-methyl-2H-tetrazol-5-yl)-1H-benzo[d]imidazol-1-yl)methyl)benzo[d]thiazol-2-yl)amino)cyclohexanol]
21 | < 5.30 | A (A≤0.01) | COc1ccc2ncc(Cc3ccc4nc(N[C@@H]5CCCC[C@H]5O)sc4c3)n2c1 [Example 165, (1R,2R)-2-((6-((6-methoxyimidazo[1,2-a]pyridin-3-yl)methyl)benzo[d]thiazol-2-yl)amino)cyclohexanol]
22 | ≥ 6.70 | A (A≤0.01) | C=Cc1ccc2c(c1)ncn2Cc1ccc2nc(N[C@@H]3CCC[C@@H](O)[C@H]3O)sc2c1 [Example 232, (1R,2S,3R)-3-((6-((5-vinyl-1H-benzo[d]imidazol-1-yl)methyl)benzo[d]thiazol-2-yl)amino)cyclohexane-1,2-diol]
